Where a name gives a salt, the structure may show the parent alone. Some results are limits rather than exact numbers.

T1 sequence (Q9HBA0 whole entry): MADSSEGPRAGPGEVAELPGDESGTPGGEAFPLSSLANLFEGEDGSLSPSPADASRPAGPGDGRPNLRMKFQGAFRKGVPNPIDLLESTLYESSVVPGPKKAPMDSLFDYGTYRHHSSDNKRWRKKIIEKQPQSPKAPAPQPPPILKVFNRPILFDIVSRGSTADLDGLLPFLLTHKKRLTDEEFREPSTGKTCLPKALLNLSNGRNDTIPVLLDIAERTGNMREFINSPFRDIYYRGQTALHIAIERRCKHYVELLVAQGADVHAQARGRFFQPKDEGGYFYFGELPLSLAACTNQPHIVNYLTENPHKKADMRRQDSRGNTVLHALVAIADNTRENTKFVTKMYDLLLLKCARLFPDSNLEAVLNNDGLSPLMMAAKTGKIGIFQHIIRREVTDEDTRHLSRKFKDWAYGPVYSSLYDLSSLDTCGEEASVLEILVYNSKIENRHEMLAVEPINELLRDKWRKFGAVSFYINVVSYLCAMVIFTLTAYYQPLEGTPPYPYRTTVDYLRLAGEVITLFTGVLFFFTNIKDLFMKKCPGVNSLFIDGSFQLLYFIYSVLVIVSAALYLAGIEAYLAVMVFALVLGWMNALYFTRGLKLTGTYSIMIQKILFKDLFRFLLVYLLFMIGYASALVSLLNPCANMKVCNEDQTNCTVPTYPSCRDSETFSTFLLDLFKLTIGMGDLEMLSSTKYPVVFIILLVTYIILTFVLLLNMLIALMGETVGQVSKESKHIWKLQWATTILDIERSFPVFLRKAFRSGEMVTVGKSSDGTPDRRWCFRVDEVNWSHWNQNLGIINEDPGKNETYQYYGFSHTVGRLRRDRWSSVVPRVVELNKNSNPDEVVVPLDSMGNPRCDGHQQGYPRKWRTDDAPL

This assay has as its target T1, human TRPV4 (Homo sapiens, UniProt Q9HBA0).
T1 construct: expressed in transfected cells
Description: Fluorometric cell-based Ca2+ flux assay, HEK-293 cells stably overexpressing human TRPV4. The following applies: HEK-293 stably overexpressing human TRPV4; agonist GSK1016790A 30 nM. How it is done:
Fluorometric cell-based Ca^2+ flux assays were performed to assess TRPV4 antagonist activity and determine potency (IC50 values) in human embryonic kidney-293 cells (HEK-293) that stably overexpress human TRPV4. The assays were performed according to methods described in: Deering-Rice, C. E., Johansen, M. E., Roberts, J. K., Thomas, K. C., Romero, E. G., Lee, J., Yost, G. S., Veranth, J. M., and Reilly, C. A. (2012), Mol. Pharmacol. 81(3), 411-419; Shapiro, D., Deering-Rice, C. E., Romero, E. G., Hughen, R. W., Light, A. R., Veranth, J. M., and Reilly, C. A. (2013), Chem Res. Toxicol., 26, 750-758; and Deering-Rice, C. E., Mitchell, V. K., Romero, E. G., Abdel Aziz, M. H., and Reilly, C. A. (2014), Pharmacol. Res. & Perspectives. 2(5), 1-10.
The HEK-293 cells stably overexpressing human TRPV4 were grown to confluence in 2% (w/v) gelatin-coated 96-well plates in DMEM:F12 media supplemented with 5% fetal bovine serum, 1× penicillin/streptomycin (Invitrogen) and Geneticin (300 μg/mL).
The HEK-293 cells were prepared for assay by replacing the growth media with a 1:1 solution of LHC-9 and Fluo 4-Direct (Invitrogen) reagent containing Fluo 4-AM, pluronic F-127, probenecid, and a proprietary quencher dye. The cells were then incubated at 37° C. for 1 h in a cell culture incubator. The cells were subsequently washed by replacing the loading solution with LHC-9 containing 1 mM water-soluble probenecid (Invitrogen), 750 μM Trypan Red (ATT Bioquest), and a test compound (at various concentrations). The cells were incubated for an additional 30 minutes at 37° C. to allow for Fluo 4-AM cleavage and activation, as well as equilibration to both the test compounds and Fluo 4.
An agonist treatment solution (90 nM GSK1016790A, a potent activator of TRPV4) was prepared in LHC9 at 3× concentration and 25 μL was added to 50 μL of media on the cells in 96 well plates, providing a final concentration of 30 nM. Changes in cellular fluorescence were monitored with a BMG Labtech NOVOStar fluorescence plate reader for 1 minute at 37° C. Data were quantified as the maximum rate of change in fluorescence intensity (max ΔF/s), corrected for media only treatment (negative control), and represented as the percentage of response relative to the no antagonist control. A minimum of three replicates were used for each treatment condition, with a minimum of 8 concentrations to derive the IC50 values reported for each antagonist. The IC50 values for each antagonist, which are shown in Table 4 below, were calculated according to methods described in the assays were performed according to methods described in: Deering-Rice, C. E., Johansen, M. E., Roberts, J. K., Thomas, K. C., Romero, E. G., Lee, J., Yost, G. S., Veranth, J. M., and Reilly, C. A. (2012), Mol. Pharmacol. 81(3), 411-419; Shapiro, D., Deering-Rice, C. E., Romero, E. G., Hughen, R. W., Light, A. R., Veranth, J. M., and Reilly, C. A. (2013), Chem Res. Toxicol., 26, 750-758; and Deering-Rice, C. E., Mitchell, V. K., Romero, E. G., Abdel Aziz, M. H., and Reilly, C. A. (2014), Pharmacol. Res. & Perspectives. 2(5), 1-10.
(In general: Calcium assays in cells follow changes in intracellular calcium, usually with a dye or a luminescent sensor.)
Take `N#Cc1ccc(OCC2(CNCC(N)=O)CN(S(=O)(=O)c3ccc(Cl)cc3Cl)C2)cc1F` [Compound 20, 2-(((3-((4-Cyano-3-fluorophenoxy)methyl)-1-((2,4-dichlorophenyl)sulfonyl)azetidin-3-yl)methyl)amino)acetamide hydrochloride]: the IC50 (commonly the midpoint of a concentration-inhibition curve) stood at 153 nM.

In turn, `CCOc1cc(OCC2(COC(=O)c3ccc(Br)cc3)CN(S(=O)(=O)c3ccc(Cl)cc3Cl)C2)ccc1C#N` [Compound 99, (3-((4-Cyano-3-ethoxyphenoxy)methyl)-1-((2,4-dichlorophenyl)sulfonyl)azetidin-3-yl)methyl 4-bromobenzoate] had an IC50 above 1000 nM.

As to `Cc1ccc(S(=O)(=O)N2CC(CO)(COc3ccc(C#N)c(F)c3)C2)c(Cl)c1` [Compound 82, 4-((1-((2-Chloro-4-methylphenyl)sulfonyl)-3-(hydroxymethyl)azetidin-3-yl)methoxy)-2-fluorobenzonitrile], the IC50 was above 27 nM.

For `N#Cc1ccc(OCC2(CNCc3nccs3)CN(S(=O)(=O)c3ccc(Cl)cc3Cl)C2)cc1F` [Compound 22, 4-((1-((2,4-dichlorophenyl)sulfonyl)-3-(((thiazol-2-ylmethyl)amino)methyl)azetidin-3-yl)methoxy)-2-fluorobenzonitrile hydrochloride], the IC50 worked out at 117 nM.

Take `N#Cc1ccc(OCC2(CNCC3COC3)CN(S(=O)(=O)c3ccc(Cl)cc3Cl)C2)cc1F` [Compound 27, 4-((1-((2,4-Dichlorophenyl)sulfonyl)-3-(((oxetan-3-ylmethyl)amino)methyl)azetidin-3-yl)methoxy)-2-fluorobenzonitrile]: the IC50 is 1 nM.

For the molecule `CCNCC1(COc2ccc(C#N)c(F)c2)CN(S(=O)(=O)c2ccc(Cl)cc2Cl)C1` [Compound 25, 4-((1-((2,4-Dichlorophenyl)sulfonyl)-3-((ethylamino)methyl)azetidin-3-yl)methoxy)-2-fluorobenzonitrile hydrochloride], the IC50 amounted to 1 nM.

`NCc1ccc(OCC2(CO)CN(S(=O)(=O)c3ccc(Cl)cc3Cl)C2)cc1F` [Compound 10, (3-((4-(Aminomethyl)-3-fluorophenoxy)methyl)-1-((2,4-dichlorophenyl)sulfonyl)azetidin-3-yl)methanol]: the IC50 was 10000 nM.

Molecule `Cc1ccc(S(=O)(=O)N2CC(CO)(COc3ccc(C#N)c(F)c3)C2)c(C#N)c1` [Compound 103, 4-((1-((2-Cyano-4-methylphenyl)sulfonyl)-3-(hydroxymethyl)azetidin-3-yl)methoxy)-2-fluorobenzonitrile] came in with an IC50 of 14.7 nM.

For the molecule `N#Cc1ccc(OCC2(CNC[C@@H]3CCCO3)CN(S(=O)(=O)c3ccc(Cl)cc3Cl)C2)cc1F` [Compound 28, (S)-4-((1-((2,4-dichlorophenyl)sulfonyl)-3-((((tetrahydrofuran-2-yl)methyl)amino)methyl)azetidin-3-yl)methoxy)-2-fluorobenzonitrile hydrochloride], the IC50 is 8.7 nM.

For `O=S(=O)(c1ccc(Cl)cc1Cl)N1CC(CO)(COc2ccnc(Cl)c2)C1` [Compound 94, (3-(((2-Chloropyridin-4-yl)oxy)methyl)-1-((2,4-dichlorophenyl)sulfonyl)azetidin-3-yl)methanol], the IC50 was around 3000 nM.

Regarding `N#Cc1ccc(OCC2(CNC3CCOCC3)CN(S(=O)(=O)c3ccc(Cl)cc3Cl)C2)cc1F` [Compound 18, 4-((1-((2,4-Dichlorophenyl)sulfonyl)-3-(((tetrahydro-2H-pyran-4-yl)amino)methyl)azetidin-3-yl)methoxy)-2-fluorobenzonitrile hydrochloride], the IC50 worked out at 0.7 nM.

Take `N#Cc1ccc(OCC2(CNC3COC3)CN(S(=O)(=O)c3ccccc3C#N)C2)cc1F` [Compound 111, 4-((1-((2-Cyanophenyl)sulfonyl)-3-((oxetan-3-ylamino)methyl)azetidin-3-yl)methoxy)-2-fluorobenzonitrile]: the IC50 was 47.6 nM.

(Values after patent US20230026696A1, “TRPV4 RECEPTOR LIGANDS” (UNIVERSITY OF UTAH RESEARCH FOUNDATION, priority 2019, published 2023).)
